A short description of data set [1]: Redeposition of ghee onto coupons. As to conditions: pH 11, 50° C., 1 g ghee in 600 g water, 10 minutes, FIG. 5. The method, then:
Each coupon was new and conditioned by soaking in methyl alcohol for 30 seconds, then placed in 60° C. oven for 30 minutes. 600 g of 0 grain water was heated in a 1000 ml beaker to 50° C. The pH of the mixture was adjusted to 11 using NaOH. The chemistry was added to the solution and mixed for one minute. Additionally, 1 g of melted ghee was added to the solution and mixed for one minute. Three cleaned and weighed coupons were added using a coupon holder. After 10 minutes, the coupons were removed and dipped in DI water once. Coupons were left to dry overnight and weighed the following day. […] Therefore, after the soil is removed it is less likely to be redeposited onto the surface again.

Data set [2] in a line: Toxicity screening of surfactants by derived no-effect level (DNEL). As to conditions: derived from toxicological studies supplied by the surfactant manufacturer, with assessment factors.
Description: As referred to herein, a DNEL is substance specific and is commonly used as a health risk-based threshold in toxicological risk assessments. As a point of departure for the derivation of a DNEL varying toxicological studies are used, supplied by the surfactant manufacturer. […] Depending on evaluated endpoint and different parameters of these studies certain assessment factors are applied to derivate the DNEL. Used herein are scientifically justified and publicly recognized methods (e.g. by EFSA or ECETOC) for the determination of these assessment factors.
Surfactants were screened for lower toxicity levels.

With Alkyl polyglucosides [APGs], the “redeposition of butterfat onto coupons” value in data set [1] was “helps prevent a larger amount of butterfat from being deposited”.

As for Nonylphenol ethoxylate [NPE], the “DNEL (derived no-effect level)” value in data set [2] was “less than 1”.

Source of the values: patent publication US20250188387A1, “LOW TOXICITY SURFACTANT BOOSTER COMPOSITIONS FOR FILTRATION MEMBRANE CLEANING APPLICATIONS” (ECOLAB USA INC., priority 2023, published 2025).
